Consider one compound from US12479866B2, “Boron-containing rho kinase inhibitors” (Percipiad, Inc., priority 2019, dated 2025).

Holding throughout (assay type): biochemical
Assay [1] has as its target T1, ROCK2 (Homo sapiens (Human), UniProt O75116). The assay can be described thus: ROCK2 ADP-Glo kinase enzyme inhibition assay. As for the experimental part: (§1) We measured ROCK and PKA kinase enzyme activity inhibition by compounds using commercially available ROCK1 (Promega Corporation, cat #V9581), ROCK2 (Promega, cat #V4045), and PKA kinase (Promega, cat #V4247) ADP-Glo™ assay kits. ADP-Glo™ Kinase Assay is a luminescent ADP detection assay that provides a homogeneous method to measure kinase activity by quantifying the amount of ADP produced during a kinase reaction. The assay is performed in two steps. First, after the kinase reaction, an equal volume of ADP-Glo™ Reagent is added to terminate the kinase reaction and deplete the remaining ATP. Second, the Kinase Detection Reagent is added to simultaneously convert ADP to ATP and allow the newly synthesized ATP to be measured using a luciferase/luciferin reaction. The light generated is measured using a luminometer. A complete protocol is included with the kits and is also available at the Promega website. The assay is briefly described below. • 1. Diluted enzyme, substrate, ATP, and compounds (inhibitors) in Kinase Buffer (40 mM Tris, 7.5, 20 mM MgCl2, 0.1 mg/ml BSA, 50 μM DTT). • 2. Added 1 μl of inhibitor, 2 μl of enzyme and 2 μl of substrate/ATP mix to the wells of 384-well low volume nonbinding assay plate A series of three-fold dilution of inhibitor was prepared and assayed for each inhibitor. • 3. Incubated at room temperature for 60 minutes. • 4. Added 5 μl of ADP-Glo™ Reagent. • 5. Incubated at room temperature for 60 minutes. • 6. Added 10 μl of Kinase Detection Reagent • 7. Incubated at room temperature for 30 minutes.
(§2) Recorded luminescence (Integration time 1 second) using a plate-based luminometer.
Calculated Percent Enzyme Activity: First subtract the signal of the negative control (no enzyme and no inhibitor) from each sample's signal. Then use the mean relative light units (RLU) values for the 0% kinase activity (neither inhibitor nor enzyme) and the 100% kinase activity (no compound) to calculate the other percent enzyme activities remaining in the presence of the different dilutions of inhibitor.
Inhibitor stock solutions of 10 mM are made in DMSO and stored at −20° C. Dilutions were made in assay buffer immediately before use.
Target sequence in this assay (O75116 whole entry): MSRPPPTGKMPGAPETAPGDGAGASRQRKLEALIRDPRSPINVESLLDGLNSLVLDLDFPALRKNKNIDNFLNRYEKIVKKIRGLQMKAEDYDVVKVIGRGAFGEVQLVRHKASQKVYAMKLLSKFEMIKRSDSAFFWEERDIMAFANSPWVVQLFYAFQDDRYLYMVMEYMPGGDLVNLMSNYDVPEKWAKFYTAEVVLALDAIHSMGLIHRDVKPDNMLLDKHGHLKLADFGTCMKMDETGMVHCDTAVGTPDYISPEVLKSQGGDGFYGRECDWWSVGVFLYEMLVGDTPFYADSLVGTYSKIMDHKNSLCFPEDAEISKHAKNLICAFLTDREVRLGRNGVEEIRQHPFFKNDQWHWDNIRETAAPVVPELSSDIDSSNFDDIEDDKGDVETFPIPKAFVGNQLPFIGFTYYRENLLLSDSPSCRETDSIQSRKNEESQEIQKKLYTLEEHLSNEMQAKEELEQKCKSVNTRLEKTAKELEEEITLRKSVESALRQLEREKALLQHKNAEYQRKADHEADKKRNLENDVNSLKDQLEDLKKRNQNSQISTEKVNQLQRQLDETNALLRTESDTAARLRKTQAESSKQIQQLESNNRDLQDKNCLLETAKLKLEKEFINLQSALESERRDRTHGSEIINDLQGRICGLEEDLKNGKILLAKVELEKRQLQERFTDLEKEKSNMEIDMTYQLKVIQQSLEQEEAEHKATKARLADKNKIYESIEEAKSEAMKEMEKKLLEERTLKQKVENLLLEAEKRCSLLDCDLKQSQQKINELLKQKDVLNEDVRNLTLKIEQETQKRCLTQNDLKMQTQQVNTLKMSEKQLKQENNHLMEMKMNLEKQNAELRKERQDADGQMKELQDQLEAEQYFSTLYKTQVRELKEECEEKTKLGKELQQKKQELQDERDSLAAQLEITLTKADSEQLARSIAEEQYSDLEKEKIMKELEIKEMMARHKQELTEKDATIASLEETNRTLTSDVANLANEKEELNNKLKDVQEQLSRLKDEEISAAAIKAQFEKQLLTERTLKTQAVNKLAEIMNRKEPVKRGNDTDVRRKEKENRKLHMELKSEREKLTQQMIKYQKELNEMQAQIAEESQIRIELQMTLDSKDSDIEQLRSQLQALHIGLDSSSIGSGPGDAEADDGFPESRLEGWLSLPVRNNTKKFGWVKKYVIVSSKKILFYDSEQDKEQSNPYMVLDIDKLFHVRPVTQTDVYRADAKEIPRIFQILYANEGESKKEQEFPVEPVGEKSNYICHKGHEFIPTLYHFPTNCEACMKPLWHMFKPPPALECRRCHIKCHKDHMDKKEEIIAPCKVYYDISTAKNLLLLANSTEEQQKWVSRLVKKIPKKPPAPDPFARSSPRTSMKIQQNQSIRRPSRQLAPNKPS
On the technique in general: In ADP-Glo the light output rises with the ADP produced.

In assay [2] the target is T2, PKA (Homo sapiens (Human), UniProt P17612). Briefly: Radioisotope filter binding kinase assay. Conditions: 10 uM ATP, read-out: IC50 estimates, PKA. As for the experimental part:
(§3) Experiment was conducted by Absorption Systems. […] The radioisotope filter binding assay is considered the gold standard for kinase profiling. The assay directly detects the true product without the use of modified substrates, coupling enzymes, or detection antibodies. Compounds are incubated with kinase, substrate, cofactors, and radioisotope-labeled ATP (^33P-Y-ATP). The reaction mixtures are then spotted onto filter papers, which bind the radioisotope-labeled catalytic product. Unreacted phosphate is removed via washing of the filter papers.
(§4) • Prepare kinase-specific substrate in freshly prepared Base Reaction Buffer (20 mM Hepes (pH 7.5), 10 mM MgCl2, 1 mM EGTA, 0.02% Brij35, 0.02 mg/ml BSA, 0.1 mM Na3VO4, 2 mM DTT, 10 µM ATP, and 1% DMSO). • Add kinase enzyme into the substrate solution and gently mix. • Add compounds in DMSO into the kinase reaction mixture by Acoustic technology (Echo550; nanoliter range), incubate for 20 minutes at room temperature. • Add ^33P-ATP (specific activity 10 μCi/μl)) into the reaction mixture to initiate the reaction. • Incubate kinase reaction for 2 hours at room temperature. • Spot reactions onto P81 ion exchange paper. • Detect kinase activity by filter-binding method.

Another assay addresses PKCtheta (Homo sapiens (Human), UniProt Q04759). Briefly: Radioisotope filter binding kinase assay. The conditions noted are these: 10 uM ATP, read-out: IC50 estimates, PKCtheta. On the procedure: as §3, §4
The target in a further assay is MRCKa (Homo sapiens (Human), UniProt Q5VT25). Briefly: Radioisotope filter binding kinase assay. The conditions noted are these: 10 uM ATP, read-out: IC50 estimates, MRCKa. On the procedure: as §3, §4
A further assay concerns the target ROCK1 (Homo sapiens (Human), UniProt Q13464). The assay can be described thus: Radioisotope filter binding kinase assay. The conditions noted are these: 10 uM ATP, read-out: IC50 estimates, ROCK1. On the procedure:
as §3, §4

For assay [3], the target named is T1, ROCK2. The assay can be described thus: Radioisotope filter binding kinase assay. The conditions noted are these: 10 uM ATP, read-out: IC50 estimates, ROCK2. On the procedure: as §3, §4
Target sequence in this assay (O75116 whole entry, species assumed): as the sequence (O75116 whole entry) above
In assay [4] the target is T2, PKA. Briefly: PKA ADP-Glo kinase enzyme inhibition assay. Conditions: read-out: PKAIC50. As for the experimental part: as §1, with “Added 1 μl of inhibitor, 2 μl of enzyme and 2 μl of substrate/ATP mix to the wells of 384-well low volume nonbinding assay plate A series of three-fold dilution of inhibitor was prepared and assayed for each inhibitor. • 3. Incubated at room temperature for 60 minutes. • 4. Added 5 μl of ADP-Glo™ Reagent. • 5. Incubated at room temperature for 60 minutes. • 6. Added 10 μl of Kinase Detection Reagent • 7. Incubated at room temperature for 30 minutes.” left out
as §2
Calculated Percent Enzyme Activity: First subtract the signal of the negative control (no enzyme and no inhibitor) from each sample's signal. […]

MRCKa, sequence (Q5VT25 whole entry): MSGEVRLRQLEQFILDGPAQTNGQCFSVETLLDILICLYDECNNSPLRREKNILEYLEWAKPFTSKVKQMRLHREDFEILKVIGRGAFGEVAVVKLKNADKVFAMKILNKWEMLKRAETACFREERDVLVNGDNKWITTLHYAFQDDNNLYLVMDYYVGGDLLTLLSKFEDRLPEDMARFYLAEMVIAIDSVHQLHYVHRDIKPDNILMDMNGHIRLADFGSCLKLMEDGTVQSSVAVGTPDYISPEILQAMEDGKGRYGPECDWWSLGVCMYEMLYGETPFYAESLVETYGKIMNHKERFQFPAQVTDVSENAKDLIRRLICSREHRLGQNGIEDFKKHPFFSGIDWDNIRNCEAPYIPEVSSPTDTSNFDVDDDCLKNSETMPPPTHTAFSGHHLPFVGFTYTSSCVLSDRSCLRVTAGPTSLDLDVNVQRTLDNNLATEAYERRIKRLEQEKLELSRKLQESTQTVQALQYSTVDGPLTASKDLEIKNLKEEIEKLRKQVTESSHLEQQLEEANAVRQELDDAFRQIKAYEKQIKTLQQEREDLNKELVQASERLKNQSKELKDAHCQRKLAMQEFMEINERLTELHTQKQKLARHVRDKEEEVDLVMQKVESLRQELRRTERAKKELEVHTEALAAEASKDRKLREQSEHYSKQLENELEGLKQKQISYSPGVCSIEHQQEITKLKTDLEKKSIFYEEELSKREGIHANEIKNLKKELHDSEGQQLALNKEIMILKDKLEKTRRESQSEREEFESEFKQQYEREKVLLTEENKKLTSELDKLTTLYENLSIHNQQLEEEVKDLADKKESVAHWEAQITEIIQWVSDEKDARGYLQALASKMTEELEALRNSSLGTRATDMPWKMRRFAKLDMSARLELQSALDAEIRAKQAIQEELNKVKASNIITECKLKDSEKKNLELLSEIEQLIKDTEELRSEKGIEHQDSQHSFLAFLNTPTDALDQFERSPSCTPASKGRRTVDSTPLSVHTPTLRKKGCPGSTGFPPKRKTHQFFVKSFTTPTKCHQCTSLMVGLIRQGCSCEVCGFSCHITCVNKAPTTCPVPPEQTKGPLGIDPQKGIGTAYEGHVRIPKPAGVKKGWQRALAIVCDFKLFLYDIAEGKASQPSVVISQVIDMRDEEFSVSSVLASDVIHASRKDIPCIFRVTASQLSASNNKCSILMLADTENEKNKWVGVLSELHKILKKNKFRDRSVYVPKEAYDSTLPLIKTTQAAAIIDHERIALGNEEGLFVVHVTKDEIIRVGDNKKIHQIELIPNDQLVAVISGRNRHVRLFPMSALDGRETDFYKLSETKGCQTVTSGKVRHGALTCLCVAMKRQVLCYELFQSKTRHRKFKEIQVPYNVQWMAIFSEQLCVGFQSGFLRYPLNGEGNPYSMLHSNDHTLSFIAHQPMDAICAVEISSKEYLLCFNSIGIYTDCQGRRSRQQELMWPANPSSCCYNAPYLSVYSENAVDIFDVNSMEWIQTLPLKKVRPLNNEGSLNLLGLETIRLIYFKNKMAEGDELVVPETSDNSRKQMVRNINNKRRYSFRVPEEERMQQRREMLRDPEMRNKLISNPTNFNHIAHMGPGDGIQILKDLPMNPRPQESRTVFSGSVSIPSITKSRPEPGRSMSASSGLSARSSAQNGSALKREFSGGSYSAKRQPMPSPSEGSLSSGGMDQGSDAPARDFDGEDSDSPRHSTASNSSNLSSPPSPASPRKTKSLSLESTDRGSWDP
PKCtheta, sequence (Q04759 whole entry): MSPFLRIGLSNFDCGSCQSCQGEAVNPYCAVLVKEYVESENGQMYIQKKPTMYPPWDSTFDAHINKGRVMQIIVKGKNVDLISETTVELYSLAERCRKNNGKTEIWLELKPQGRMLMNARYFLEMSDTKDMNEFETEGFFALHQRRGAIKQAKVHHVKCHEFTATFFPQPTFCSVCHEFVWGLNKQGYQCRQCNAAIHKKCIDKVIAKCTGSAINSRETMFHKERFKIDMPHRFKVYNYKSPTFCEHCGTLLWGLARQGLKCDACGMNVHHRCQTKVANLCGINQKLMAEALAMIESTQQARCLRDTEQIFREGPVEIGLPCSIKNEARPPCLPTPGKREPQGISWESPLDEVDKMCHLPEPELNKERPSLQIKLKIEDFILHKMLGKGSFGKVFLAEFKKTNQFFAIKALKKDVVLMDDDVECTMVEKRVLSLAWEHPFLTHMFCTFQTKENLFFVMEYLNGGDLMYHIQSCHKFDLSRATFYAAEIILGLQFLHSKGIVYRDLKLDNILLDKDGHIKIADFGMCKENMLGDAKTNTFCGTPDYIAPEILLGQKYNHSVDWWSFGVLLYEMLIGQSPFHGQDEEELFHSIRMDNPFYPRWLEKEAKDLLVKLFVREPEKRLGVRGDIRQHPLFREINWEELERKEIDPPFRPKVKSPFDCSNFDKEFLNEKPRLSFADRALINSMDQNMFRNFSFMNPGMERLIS

`NCC(C(=O)Nc1ccc2cnccc2c1)c1ccc(CO)cc1` (racemic) [Netarsudil-M1-racemate•2HCl, Netarsdil-M1-(racemic), reference compound]: the IC50 on ROCK2 [1] (Exp #2, read-out: ROCK2 IC50(Exp #2)) was 0.066 µM; at ROCK2 [1] (Exp #3, read-out: ROCK2 IC50(Exp #3)), 0.015 µM; on PKA [2], 0.012 µM; at PKCtheta it was 5.13 µM; on MRCKa it was > 10 µM; on ROCK1, 0.015 µM. In addition, the IC50 on ROCK2 [3] was 0.006 µM; at PKA [4] it was 0.023 µM.
